Values after ≈ are worked out from the molar mass of the structure shown.
Conditions: buffer; pH 7.4; 200.0 µM

Structure (SMILES)	solubility kinetic
Cc1ccc(NC(=O)Nc2cnccn2)c(C)c1	2.2 µg/mL (≈ 9.08 µM)
CC1CCCN(C(=O)COC(=O)Cc2c(F)cccc2Cl)C1 (configuration not stated)	40.9 µg/mL (≈ 125 µM)
Nc1cc(S(=O)(=O)N2CCOCC2)ccc1N1CCOCC1	> 49.1 µg/mL
CCC(=O)OCC(=O)Nc1cc([N+](=O)[O-])ccc1Cl	> 43 µg/mL
CC(C)c1nc2sc3c(=O)[nH]cnc3c2c2c1CCCC2	< 0.2 µg/mL
Cc1cc(NC(=O)c2cc([N+](=O)[O-])cc([N+](=O)[O-])c2)no1	9.8 µg/mL (≈ 33.5 µM)
CCOC(=O)c1sc(-c2ccc(C(F)(F)F)cc2)nc1O	> 47.6 µg/mL
COc1ccc(NC(=O)COC(=O)Cn2cnc3ccccc32)cc1	> 50.9 µg/mL
O=S(=O)(c1ccccc1)N1CCCC1c1cccs1 (configuration not stated)	> 44 µg/mL
Cn1cc([N+](=O)[O-])c(C(=O)N/N=C/c2ccncc2)n1	> 41.1 µg/mL
CCN1C(=O)CC(NNC(=O)c2ccccc2)C1=O (configuration not stated)	> 39.2 µg/mL
COc1ccc(NC(=O)CN2CCN(c3ccccc3C)CC2)cc1	35.5 µg/mL (≈ 105 µM)
COc1ccccc1NC(=O)Cn1cc(C(=O)c2ccco2)c2ccccc21	1.2 µg/mL (≈ 3.21 µM)
COc1ccc(N(C)S(=O)(=O)c2cccc(C(=O)OCC(=O)N3CC(C)CC(C)C3)c2)cc1 (configuration not stated)	7.3 µg/mL (≈ 15.4 µM)
Cc1noc(C)c1COC(=O)c1cc(S(=O)(=O)N2CCOCC2)ccc1Cl	42.4 µg/mL (≈ 102 µM)
CC(C(=O)c1c[nH]c2ccccc12)N1CCOCC1 (configuration not stated)	> 38.7 µg/mL
Cc1cccc(OCC(=O)N2CCc3ccccc3C2)c1	34.6 µg/mL (≈ 123 µM)
C=CCn1cccc(C(=O)Nc2ccc(OC)c(Cl)c2)c1=O	1.5 µg/mL (≈ 4.71 µM)
CC(C)(C)N1C(=O)c2ccc(C(=O)Nc3cc(C(=O)O)cc(C(=O)O)c3)cc2C1=O	51.5 µg/mL (≈ 125 µM)
CCN(C(=O)CN1C(=O)CN(C)C1=O)c1cccc2ccccc12	> 48.8 µg/mL
Cc1cccc(C(=O)NCc2ccco2)c1	> 32.3 µg/mL
O=C(c1ccc2ccccc2c1)N1CCN(c2ccccn2)CC1	47.5 µg/mL (≈ 150 µM)
COCCCNc1nc2nonc2nc1N1CCN(C2CCCC2)CC1	45.9 µg/mL (≈ 127 µM)
COc1ccc(OC)c(NC(=O)N2CCc3ccccc3C2)c1	> 46.9 µg/mL

Structure (SMILES)	solubility kinetic
COc1ccc(NC(=S)N2CCN(C)CC2)cc1	> 39.8 µg/mL
CCOc1ccc(S(=O)(=O)N2CC(=O)Nc3ccccc32)cc1	10.7 µg/mL (≈ 32.2 µM)
Cc1c(C)c(C)c2[nH]c(=S)[nH]c2c1C	0.4 µg/mL (≈ 1.94 µM)
CN1CCN(c2ncc(CN3C(=O)c4ccccc4C3=O)s2)CC1	> 51.4 µg/mL
Cc1cccc(NC(=O)Nc2cccc3ccccc23)c1	< 0.3 µg/mL
CC(=O)c1cccc(NC(=O)c2ccccc2-c2ccccc2C(=O)O)c1	> 53.9 µg/mL
CC(C)(C)c1ccc(CCC2OCC(C[N+]3(C)CCOCC3)O2)cc1.[I-] (configuration not stated)	> 71.3 µg/mL
CC(C)CCNC(=O)c1ccc2c(c1)ncn2C1CCCC1	> 44.9 µg/mL
CCOC(=O)c1ccc(NCCOC)c([N+](=O)[O-])c1	33.2 µg/mL (≈ 124 µM)
CCOC(=O)c1c(NC(=O)c2ccccc2C(=O)O)sc2c1CCCC2	41.5 µg/mL (≈ 111 µM)
CN(C1CCCCC1)S(=O)(=O)c1cccc2nsnc12	> 46.7 µg/mL
CC12C(=O)N(c3ccccc3)C(=O)C1C(c1ccccc1)N1CCCN12 (configuration not stated)	> 52.1 µg/mL
Cc1ccccc1C(=O)Nc1nc(-c2cccnc2)cs1	3.9 µg/mL (≈ 13.2 µM)
CC1(C)Cc2c(C#N)c(N3CCNCC3)nc(-c3ccco3)c2CS1	21.5 µg/mL (≈ 60.7 µM)
CCOc1ccc(NC(=O)CN2C(=O)C(C)SC(C)C2=O)cc1 (configuration not stated)	34.8 µg/mL (≈ 103 µM)
O=C(COc1ccccc1O)NC1CCCC1	> 35.3 µg/mL
COc1cc2ncnc(NCc3ccccc3F)c2cc1OC	41.8 µg/mL (≈ 133 µM)
CC(C)CNC(=O)c1ccc2c(c1)C(=O)N(Cc1ccco1)C2=O	25.9 µg/mL (≈ 79.4 µM)
Cc1ccc(OCCCC(=O)NC(C)c2ccccc2)c(C)c1 (configuration not stated)	22.6 µg/mL (≈ 72.6 µM)
O=C(NCC1CCCO1)c1ccccc1NS(=O)(=O)c1cccc([N+](=O)[O-])c1 (configuration not stated)	> 60.8 µg/mL
O=C(Nc1cccnc1)c1cc([N+](=O)[O-])ccc1Cl	> 41.7 µg/mL
N#CC1C=Cc2ccccc2N1C(=O)c1ccccc1 (configuration not stated)	10.3 µg/mL (≈ 39.6 µM)
Cc1noc(C)c1C(=O)OCC(=O)Nc1ccc(N2CCOCC2)cc1	7.6 µg/mL (≈ 21.1 µM)
CSc1ncccc1C(=O)OCc1ccccc1Cl	< 0.6 µg/mL

Structure (SMILES)	solubility kinetic
COCc1cc(C)n(CC(=O)NCC2CCCO2)c(=O)c1C#N (configuration not stated)	41.8 µg/mL (≈ 131 µM)
CCOc1ccc(NC(=O)CN2C(=O)CSC2=O)cc1	> 44.1 µg/mL
Cc1ccc(S(=O)(=O)Nc2nc3ccccc3nc2N2CCOCC2)cc1	> 57.7 µg/mL
OC(c1nnc(-c2ccccc2)o1)c1cccs1 (configuration not stated)	> 38.7 µg/mL
COc1ccc(NS(=O)(=O)c2cc(N)ccc2N2CCCC2)cc1	47.6 µg/mL (≈ 137 µM)
C=CCSc1nc(N)c2c3c(sc2n1)CN(C)CC3	43.5 µg/mL (≈ 149 µM)
Cc1nc(C)c(Oc2ccc(Cl)cc2Cl)c(=O)[nH]1	6.9 µg/mL (≈ 24.2 µM)
O=C(NC1CCN(C(=O)Nc2ccc(F)cc2)CC1)c1ccc(F)cc1	3.7 µg/mL (≈ 10.3 µM)
O=C(O)CN1C(=O)C(=O)N(Cc2ccc(Cl)cc2Cl)C1=O	> 49.7 µg/mL
O=C(OCc1ccc([N+](=O)[O-])cc1)c1cc(=O)c2ccccc2o1	5.9 µg/mL (≈ 18.1 µM)
COc1cc(C(=O)O/N=C(\N)c2cccc([N+](=O)[O-])c2)cc(OC)c1OC	0.3 µg/mL (≈ 0.799 µM)
O=C(NCC(c1cccs1)N1CCOCC1)c1cc2ccccc2oc1=O (configuration not stated)	10 µg/mL (≈ 26 µM)
Cc1nc(N)nc(N)c1CCCc1ccc(Cl)c(Cl)c1	> 46.7 µg/mL
Cc1ccnc(N2CCCC(C(=O)NC3CC3)C2)n1 (configuration not stated)	37.3 µg/mL (≈ 143 µM)
Cc1ccccc1NC(=O)CSc1nc2scc(C)c2c(=O)[nH]1	1.4 µg/mL (≈ 4.05 µM)
COc1ccc2nc(N3C(=O)CNC3=S)sc2c1	19.5 µg/mL (≈ 69.8 µM)
NC(=O)c1ccccc1NC(=O)COC(=O)CSCc1cccc(Cl)c1	10.8 µg/mL (≈ 27.5 µM)
O=C(NC(=O)C(F)(F)F)Nc1ccc(S(=O)(=O)Nc2nccs2)cc1	> 59.2 µg/mL
C[C@H](C(=O)NCc1ccccc1)C(=O)c1ccccc1	> 40.1 µg/mL
Cc1cc(C)c2[nH]c(C(=O)Nc3ccc(F)cc3Br)cc2c1	4.2 µg/mL (≈ 11.6 µM)
COc1ccc(C2(CNC(=O)c3ccccc3)CCOCC2)cc1	> 48.8 µg/mL
N#Cc1ccc(OCC(=O)Nc2ccc(N3CCCC3)cc2)cc1	5.9 µg/mL (≈ 18.4 µM)
O=C(O)CC1(CC(=O)Nc2ccc3sccc3c2)CCCCC1	42.6 µg/mL (≈ 129 µM)
COc1ccccc1NC(=O)CC(c1ccc(F)cc1)c1ccco1 (configuration not stated)	21.2 µg/mL (≈ 62.5 µM)

Structure (SMILES)	solubility kinetic
O=C(NC(=S)/C(=C1\CCCCCN1)[N+](=O)[O-])c1ccccc1	44.9 µg/mL (≈ 141 µM)
Cc1nonc1-c1csc(N)n1	> 27.3 µg/mL
Cn1c(N)c(C(=O)CN2CCc3ccccc3C2)c(=O)n(C)c1=O	> 49.3 µg/mL
O=C(Nc1ccc(F)cc1)C1CC2CCC1C2 (configuration not stated)	25.3 µg/mL (≈ 108 µM)
COc1ccc(CCNC(=O)COC(=O)c2cccn2C)cc1	> 47.5 µg/mL
Cn1c(/C=C/c2cccc(Br)c2)nc2ccccc2c1=O	0.7 µg/mL (≈ 2.05 µM)
CC1CCCC(NC(=O)COC(=O)[C@@H](NC(=O)c2ccccc2Cl)C(C)C)C1C (some centres not stated)	46.1 µg/mL (≈ 109 µM)
COc1cccc2cc(C(=O)NCCc3ccccc3)c(=O)oc12	< 0.7 µg/mL
O=C1c2ccccc2NC(c2ccccc2)N1CCCN1CCOCC1 (configuration not stated)	> 52.7 µg/mL
COc1ccc(CNC2c3ccccc3-c3ccccc32)cc1OC	31.4 µg/mL (≈ 94.7 µM)
CSc1ncccc1C(=O)N1CCN(C(=O)c2ccccc2)CC1	> 51.2 µg/mL
CCCNC(=O)C1CC(=O)N(c2ccc(OCC)cc2)C1 (configuration not stated)	> 43.6 µg/mL
C=CCSc1nc2c(c(=O)[nH]c(=O)n2C)n1Cc1ccccc1	3.9 µg/mL (≈ 11.9 µM)
CC(=O)Nc1ccc(OCCC[n+]2ccccc2)cc1.[Cl-]	> 46 µg/mL
O=C(CSc1nc2c(c(=O)[nH]1)CCC2)Nc1ccc(F)cc1	10.7 µg/mL (≈ 33.5 µM)
COc1ccccc1NC(=O)COC(=O)C1CC(=O)N(c2ccc3c(c2)OCCO3)C1 (configuration not stated)	37.8 µg/mL (≈ 88.6 µM)
O=C(CCc1nc(-c2ccccc2Cl)no1)NCC1CCCO1 (configuration not stated)	47.7 µg/mL (≈ 142 µM)
CCN(CC)c1ccc(C(=O)OCC(=O)Nc2cc(C)on2)cc1	4.6 µg/mL (≈ 13.9 µM)
CC1CC(C)CN(CC(=O)N2CCOCC2)C1.Cl (configuration not stated)	> 41.5 µg/mL
c1ccc2nc3c(nc2c1)OCC1CCCCN31 (configuration not stated)	23.5 µg/mL (≈ 97.4 µM)
O=C(c1ccc(C(=O)N2CCN(c3ccccc3F)CC2)nc1)N1CCN(c2ccccc2F)CC1	3.5 µg/mL (≈ 7.12 µM)
CCOC(=O)c1sc(SC)nc1N	22.2 µg/mL (≈ 102 µM)
O=C(O)c1cc([N+](=O)[O-])ccc1NCc1ccccc1Cl	45 µg/mL (≈ 147 µM)
CS(=O)(=O)N1CCC(C(=O)Nc2ccc(F)c(Cl)c2)CC1	> 50.2 µg/mL

Structure (SMILES)	solubility kinetic
COc1cc(CNCc2ccncc2)cc(OC)c1OC.Cl	> 48.7 µg/mL
COC(=O)c1c(C)oc(C)c1S(=O)(=O)NCc1ccc(OC)cc1	> 53 µg/mL
COc1ccc(Cl)cc1NC(=O)CN(C)C(=O)C1CC1	> 44.5 µg/mL
CCOc1ncccc1C(=O)OCC(=O)NC1CCCCC1	34.2 µg/mL (≈ 112 µM)
Cc1nnc(SCC(=O)NC(C)(C)C)n1NCc1cccc(Br)c1	> 61.9 µg/mL
COC(=O)CC1C(=O)NCCN1C(=O)c1sc2ccccc2c1Cl (configuration not stated)	> 55 µg/mL
Nc1c(C(=O)[O-])sc2nc3c(cc12)CCCC3	23.2 µg/mL
Cc1ccc(S(=O)(=O)CC(=O)Nc2ccc(F)c(F)c2F)cc1	4.8 µg/mL (≈ 14 µM)
CCSCc1nnc(SCC(=O)Nc2nccs2)n1CC	> 51.5 µg/mL
Cc1cccc(C(=O)NCC(=O)N2CCOCC2)c1	> 39.3 µg/mL
CC(=O)Oc1ccc(C(=O)NCc2ccc3c(c2)OCO3)cc1	29.1 µg/mL (≈ 92.9 µM)
CC(C)(C)C(=O)N1CCN(c2ccnc3cc(Cl)ccc23)CC1	45 µg/mL (≈ 136 µM)
Cn1c(=O)oc2cc(S(=O)(=O)NCc3ccc(C(=O)O)cc3)ccc21	> 54.4 µg/mL
Cc1ccc2[nH]cc(S(=O)(=O)c3ccc(C)c(C)c3)c(=O)c2c1	< 0.7 µg/mL
COc1cccc(OCc2ccc(Cl)cc2)c1C#N	< 0.6 µg/mL
Cc1c(Cl)cccc1NC(=O)Nc1cc(C(C)(C)C)on1	< 0.2 µg/mL
c1ccc(CCNc2ncnc3sccc23)nc1	> 38.4 µg/mL
CS(=O)(=O)c1ccc(NS(=O)(=O)c2ccc(Cl)c(C(=O)NC3=NCCS3)c2)cc1	24 µg/mL (≈ 50.6 µM)
Cc1ccc(N(CC(=O)Nc2c(C)cccc2C)S(C)(=O)=O)cc1	35.1 µg/mL (≈ 101 µM)
CN(C)CCCN(C(=O)c1ccco1)c1nc2ccc(F)cc2s1.Cl	55 µg/mL
CCOc1ccc(N=C2NC(=O)CS2)cc1	> 35.4 µg/mL

— PubChem BioAssay AID1996
